Tests used:
MIA PaCa-2 cells = assay: Growth inhibition activity on KRAS-G12C mutant cell line (MIA PaCa-2), CellTiter-Glo 3D; assay type: cell-based, human; conditions: MIA PaCa-2, 3-day culture with compound
In short: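 Cells in RPMI1640 with 10% FBS were seeded in U-bottom plates and cultured 1 day at 37 °C, 5% CO2, then exposed to compound (0.2% DMSO final) for 3 more days. Viability read by CellTiter-Glo 3D luminescence; IC50 from growth inhibition relative to untreated wells.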

[1] = target: Gppcp-bound recombinant K-Ras4B G12C mutant protein (amino acids 1-169, C51S/C80L/C118S) (Homo sapiens, UniProt P01116, C118S/C51S/C80L/G12C); assay: KRASG12C binding assay (LC-MS, compound binding rate); conditions: test compound final concentration 0.5 μM, 25° C., 1 hour
In short: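 Gppcp-bound K-Ras4B G12C (1-169; C51S/C80L/C118S), 50 nM in TBS with 0.1 mM TCEP, 0.25 mM MgCl2, 50 μM Gppcp, exposed to compound at 0.5 μM final for 1 h at 25 °C. Quenched with formic acid and analysed by intact-protein ESI LC-MS. Binding rate is the mono-adduct signal over total KRAS signal; graded A (≥80%) to E (<20%).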

[2] = target: T1, interaction between recombinant K-Ras4B G12C mutant protein and cRAF RAS-binding domain (cRAF-RBD) (Homo sapiens, UniProt P01116, G12C); assay: Inhibitory activity on interaction between KRAS G12C and cRAF (Alpha technology); assay type: biochemical; conditions: GMPPNP-bound KRAS G12C incubated with compound at 25° C. for 1 hour, then cRAF-RBD; Alpha signal
T1 construct: made in house; host or cells: E. coli
In short: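 GMPPNP-loaded His-tagged KRAS G12C (aa 1-169, E. coli) preincubated with compound 1 h at 25° C in Tris pH 7.5, 100 mM NaCl, 1 mM MgCl2, TCEP, 0.1% Tween 20; cRAF-RBD (aa 50-132) added, 1.5 h RT, Alpha signal read. DMSO = 0%, GDP-bound KRAS = 100% inhibition; IC50 from dose titration fit.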

| SMILES | IC50 (MIA PaCa-2 cells) [nM] | binding rate [1] | IC50 [2] [nM] | IC50 (MIA PaCa-2 cells; Homo sapiens, MIA PaCa-2, 72 h) [nM] |
| --- | --- | --- | --- | --- |
| Cc1cc2c(nc(C)n2C)c(Cl)c1-c1cccn2c(C(=O)c3cc(F)c(NC(=O)/C=C/CNC(C)(C)C)c(F)c3)ccc12 (single isomer, unassigned) [Example 18-2, (E)-4-(tert-butylamino)-N-(4-(8-(4-chloro-1,2,6-trimethyl-1H-benzo[d]imidazol-5-yl)indolizine-3-carbonyl)-2,6-difluorophenyl)but-2-enamide] | 230 | A (A binding rate of 80% or more is rated “A”) | 220 |  |
| CO[C@H]1CC[C@H](NC/C=C/C(=O)Nc2c(F)cc(C(=O)c3ccc4c(-c5c(C#N)cc6c(nc(C)n6C)c5Cl)cccn34)cc2F)CC1 [Example 37, (E)-N-(4-(8-(4-chloro-6-cyano-1,2-dimethyl-1H-benzo[d]imidazol-5-yl)indolizine-3-carbonyl)-2,6-difluorophenyl)-4-(((1r,4r)-4-methoxycyclohexyl)amino)but-2-enamide] |  | A (A binding rate of 80% or more is rated “A”) | 87 | 240 |
| CO[C@H]1CC[C@H](NC/C=C/C(=O)Nc2c(F)cc(C(=O)c3ccc4c(-c5c(Cl)cc6c(ncn6C)c5Cl)cccn34)cc2F)CC1 (single isomer, unassigned) [Example 15-2, (E)-N-(4-(8-(4,6-dichloro-1-methyl-1H-benzo[d]imidazol-5-yl)indolizine-3-carbonyl)-2,6-difluorophenyl)-4-(((1r,4r)-4-methoxycyclohexyl)amino)but-2-enamide] | 220 | A (A binding rate of 80% or more is rated “A”) | 190 |  |
| COc1cc2c(ncn2C)c(Cl)c1-c1cccn2c(C(=O)c3cc(F)c(NC(=O)/C=C/CNC(C)(C)C)c(F)c3)ccc12 (single isomer, unassigned) [Example 14-2, (E)-4-(tert-butylamino)-N-(4-(8-(4-chloro-6-methoxy-1-methyl-1H-benzo[d]imidazol-5-yl)indolizine-3-carbonyl)-2,6-difluorophenyl)but-2-enamide] | 42 | A (A binding rate of 80% or more is rated “A”) | 56 |  |
| COc1cc(-c2cncn2C)cc(Cl)c1-c1cccn2c(C(=O)c3cc(F)c(NC(=O)/C=C/CN[C@H]4CC[C@H](OC)CC4)c(F)c3)ccc12 [Example 42, (E)-N-(4-(8-(2-chloro-6-methoxy-4-(1-methyl-1H-imidazol-5-yl)phenyl)indolizine-3-carbonyl)-2,6-difluorophenyl)-4-(((1r,4r)-4-methoxycyclohexyl)amino)but-2-enamide] |  | A (A binding rate of 80% or more is rated “A”) | 85 | 610 |
| COc1c(-c2cccn3c(C(=O)c4cc(F)c(NC(=O)/C=C/CN[C@H]5CC[C@H](OC)CC5)c(F)c4)cnc23)c(C(F)(F)F)cc2c1nc(C)n2C (single isomer, unassigned) [Example 83-2, (E)-N-(2,6-difluoro-4-(8-(4-methoxy-1,2-dimethyl-6-(trifluoromethyl)-1H-benzo[d]imidazol-5-yl)imidazo[1,2-a]pyridine-3-carbonyl)phenyl)-4-(((1r,4r)-4-methoxycyclohexyl)amino)but-2-enamide] | 850 | B (a binding rate of 60% or more and less than 80% is rated “B”) | 920 |  |
| CO[C@H]1CC[C@H](NC/C=C/C(=O)Nc2c(F)cc(C(=O)c3c(C4CC4)nc4c(-c5cc6nc(C)n(C)c6cc5C(F)(F)F)cccn34)cc2F)CC1 [Example 95, (E)-N-(4-(2-cyclopropyl-8-(1,2-dimethyl-6-(trifluoromethyl)-1H-benzo[d]imidazol-5-yl)imidazo[1,2-a]pyridine-3-carbonyl)-2,6-difluorophenyl)-4-(((1r,4r)-4-methoxycyclohexyl)amino)but-2-enamide] |  | A (A binding rate of 80% or more is rated “A”) | 130 | 280 |
| CO[C@H]1CC[C@H](NC/C=C/C(=O)Nc2c(F)cc(C(=O)c3ccc4c(-c5c(C)cc6c(nc(CO)n6C)c5Cl)cccn34)cc2F)CC1 [Example 58] |  | A (A binding rate of 80% or more is rated “A”) | 35 | 69 |
| COc1cc2c(nc(C)n2C)c(Cl)c1-c1cccn2c(C(=O)c3cc(F)c(NC(=O)/C=C/CNC(C)(C)C)c(F)c3)ccc12 (single isomer, unassigned) [Example 36-1, (E)-4-(tert-butylamino)-N-(4-(8-(4-chloro-6-methoxy-1,2-dimethyl-1H-benzo[d]imidazol-5-yl)indolizine-3-carbonyl)-2,6-difluorophenyl)but-2-enamide] | 24 | B (a binding rate of 60% or more and less than 80% is rated “B”) | 40 |  |
| Cc1cc2c(ncn2C)c(Cl)c1-c1cccn2c(C(=O)c3cc(F)c(NC(=O)/C=C/CNC4CCOCC4)c(F)c3)ccc12 (single isomer, unassigned) [Example 27-2, (E)-N-(4-(8-(4-chloro-1,6-dimethyl-1H-benzo[d]imidazol-5-yl)indolizine-3-carbonyl)-2,6-difluorophenyl)-4-((tetrahydro-2H-pyran-4-yl)amino)but-2-enamide] | 530 | A (A binding rate of 80% or more is rated “A”) | 120 |  |
| Cc1nc2cc(-c3cccn4c(C(=O)c5cc(F)c(NC(=O)/C=C/CN[C@H]6CC[C@H](F)CC6)c(F)c5)ccc34)c(C(F)(F)F)cc2n1C [Example 80, (E)-N-(4-(8-(1,2-dimethyl-6-(trifluoromethyl)-1H-benzo[d]imidazol-5-yl)indolizine-3-carbonyl)-2,6-difluorophenyl)-4-(((1r,4r)-4-fluorocyclohexyl)amino)but-2-enamide] |  | A (A binding rate of 80% or more is rated “A”) | 59 | 85 |
| CCc1cc2c(nc(C)n2C)c(Cl)c1-c1cccn2c(C(=O)c3cc(F)c(NC(=O)/C=C/CNC(C)(C)C)c(F)c3)ccc12 [Example 16, (E)-4-(tert-butylamino)-N-(4-(8-(4-chloro-6-ethyl-1,2-dimethyl-1H-benzo[d]imidazol-5-yl)indolizine-3-carbonyl)-2,6-difluorophenyl)but-2-enamide] |  | A (A binding rate of 80% or more is rated “A”) | 64 | 48 |
| CCc1cc2c(nc(C)n2C)c(Cl)c1-c1cccn2c(C(=O)c3cc(F)c(NC(=O)/C=C/CN[C@H]4CC[C@H](OC)CC4)c(F)c3)ccc12 (single isomer, unassigned) [Example 22-1, (E)-N-(4-(8-(4-chloro-6-ethyl-1,2-dimethyl-1H-benzo[d]imidazol-5-yl)indolizine-3-carbonyl)-2,6-difluorophenyl)-4-(((1r,4r)-4-methoxycyclohexyl)amino)but-2-enamide] | 72 | A (A binding rate of 80% or more is rated “A”) | 23 |  |
| C/C=C/c1cc(C(=O)c2cc(F)c(NC(=O)/C=C/CN[C@H]3CC[C@H](OC)CC3)c(F)c2)n2cccc(-c3c(C)cc4c(nc(C)n4C)c3Cl)c12 [Example 96, (E)-N-(4-(8-(4-chloro-1,2,6-trimethyl-1H-benzo[d]imidazol-5-yl)-1-((E)-prop-1-en-1-yl)indolizine-3-carbonyl)-2,6-difluorophenyl)-4-(((1r,4r)-4-methoxycyclohexyl)amino)but-2-enamide] |  | A (A binding rate of 80% or more is rated “A”) | 36 | 130 |
| Cc1nc2c(Cl)c(-c3cccn4c(C(=O)c5cc(F)c(NC(=O)/C=C/CNC6CCOCC6)c(F)c5)ccc34)c(C(F)(F)F)cc2n1C (single isomer, unassigned) [Example 57-1, (E)-N-(4-(8-(4-chloro-1,2-dimethyl-6-(trifluoromethyl)-1H-benzo[d]imidazol-5-yl)indolizine-3-carbonyl)-2,6-difluorophenyl)-4-((tetrahydro-2H-pyran-4-yl)amino)but-2-enamide] | 20 | A (A binding rate of 80% or more is rated “A”) | 43 |  |
| Cc1nc2cc(-c3cccn4c(C(=O)c5cc(F)c(NC(=O)/C=C/CNC6CCOC6)c(F)c5)ccc34)c(C(F)(F)F)cc2n1C (stereo not drawn) [Example 77, (E)-N-(4-(8-(1,2-dimethyl-6-(trifluoromethyl)-1H-benzo[d]imidazol-5-yl)indolizine-3-carbonyl)-2,6-difluorophenyl)-4-((tetrahydrofuran-3-yl)amino)but-2-enamide] |  | A (A binding rate of 80% or more is rated “A”) | 42 | 71 |
